Measured values taken from article PMC2686615 (International Immunology, 2009).
Where a SMILES comes first, the peptide text is derived from it.

Each compound was assayed against soluble DQ8 proteins (HLA-DQ8, DQA1*0301/DQB1*0302) (Homo sapiens, UniProt P01909+P01920, A209T/A45G/C70Q/D89A/DUP78-78/E183D/E77G/F237L/G63E/H199R/I129T/K197E/L178F/L74F/L98V/Q57E/Q76R/S185I/S97I/T217I/T49S/V73L/Y58L).
Format: binding

Structure (SMILES)	IC50
CC[C@H](C)[C@H](NC(=O)[C@H](C)N)C(=O)N[C@@H](CC(C)C)C(=O)N[C@H](C(=O)N[C@@H](CC(=O)O)C(=O)N[C@@H](C)C(=O)N[C@@H](C)C(=O)N[C@@H](Cc1c[nH]cn1)C(=O)N[C@@H](CC(C)C)C(=O)N[C@@H](CC(C)C)C(=O)N[C@H](C(=O)N[C@@H](CC(=O)O)C(=O)N[C@@H](CC(C)C)C(=O)N[C@H](C(=O)O)[C@@H](C)O)[C@@H](C)CC)[C@@H](C)O [ZnT8 98–111] (H-AILTDAAHLLIDLT-OH)	7.2 µM
CC[C@H](C)[C@H](NC(=O)[C@H](CCC(=O)O)NC(=O)[C@H](C)NC(=O)[C@H](CCCNC(=N)N)NC(=O)[C@H](Cc1ccc(O)cc1)NC(=O)[C@H](Cc1c[nH]c2ccccc12)NC(=O)CNC(=O)[C@H](Cc1ccccc1)NC(=O)[C@@H](NC(=O)[C@H](CC(C)C)NC(=O)[C@H](CCCNC(=N)N)NC(=O)[C@H](CCCCN)NC(=O)[C@@H](N)CO)[C@@H](C)O)C(=O)N[C@@H](CC(C)C)C(=O)O [ZnT8 128–141] (H-SKRLTFGWYRAEIL-OH)	20.2 µM
CC[C@H](C)[C@H](NC(=O)CNC(=O)[C@H](C)NC(=O)[C@H](CCC(N)=O)NC(=O)[C@@H](NC(=O)[C@H](CCC(N)=O)NC(=O)[C@H](Cc1ccc(O)cc1)NC(=O)[C@H](CC(=O)O)NC(=O)[C@@H]1CCCN1C(=O)[C@H](Cc1ccc(O)cc1)NC(=O)[C@@H](N)CC(C)C)[C@@H](C)CC)C(=O)N[C@@H](CCSC)C(=O)N[C@H](C(=O)N[C@H](C(=O)O)[C@@H](C)O)[C@@H](C)CC [ZnT8 166–179] (H-LYPDYQIQAGIMIT-OH)	0.7 µM
CC[C@H](C)[C@H](NC(=O)[C@H](Cc1c[nH]cn1)NC(=O)[C@H](CC(C)C)NC(=O)[C@H](CO)NC(=O)[C@H](Cc1c[nH]cn1)NC(=O)[C@@H](NC(=O)[C@H](CO)NC(=O)[C@@H](NC(=O)[C@@H](NC(=O)CNC(=O)[C@H](CC(=O)O)NC(=O)[C@@H](NC(=O)[C@H](C)N)C(C)C)C(C)C)[C@@H](C)CC)C(C)C)C(=O)N[C@@H](Cc1c[nH]c2ccccc12)C(=O)O [ZnT8 292–305] (H-AVDGVISVHSLHIW-OH)	18 µM
CC[C@H](C)[C@H](N)C(=O)N[C@@H](CC(C)C)C(=O)N[C@@H](CO)C(=O)N[C@H](C(=O)N[C@@H](Cc1c[nH]cn1)C(=O)N[C@H](C(=O)N[C@@H](C)C(=O)N[C@H](C(=O)N[C@@H](C)C(=O)N[C@@H](C)C(=O)N[C@@H](CO)C(=O)N[C@@H](CCC(N)=O)C(=O)N[C@@H](CC(=O)O)C(=O)N[C@@H](CO)C(=O)O)[C@@H](C)O)C(C)C)C(C)C [ZnT8 313–326] (H-ILSVHVATAASQDS-OH)	4.9 µM
CC[C@H](C)[C@H](NC(=O)CNC(=O)[C@@H](NC(=O)[C@@H](N)CCCNC(=N)N)[C@@H](C)O)C(=O)N[C@@H](C)C(=O)N[C@@H](CCC(N)=O)C(=O)N[C@@H](C)C(=O)N[C@@H](CC(C)C)C(=O)N[C@@H](CO)C(=O)N[C@@H](CO)C(=O)N[C@@H](Cc1ccccc1)C(=O)N[C@@H](CC(=O)O)C(=O)N[C@@H](CC(C)C)C(=O)N[C@@H](Cc1c[nH]cn1)C(=O)O [ZnT8 330–343] (H-RTGIAQALSSFDLH-OH)	2.5 µM
CC[C@H](C)[C@H](NC(=O)[C@H](CCC(N)=O)NC(=O)[C@@H](NC(=O)[C@@H](NC(=O)[C@@H](N)CC(C)C)[C@@H](C)O)[C@@H](C)CC)C(=O)N[C@@H](CCC(=O)O)C(=O)N[C@@H](CO)C(=O)N[C@@H](C)C(=O)N[C@@H](C)C(=O)N[C@@H](CC(=O)O)C(=O)N[C@@H](CCC(N)=O)C(=O)N[C@@H](CC(=O)O)C(=O)N1CCC[C@H]1C(=O)N[C@@H](CO)C(=O)O [ZnT8 345–358] (H-LTIQIESAADQDPS-OH)	2.5 µM
